The text below walks through data of patent US11904051B2, “Shear stress sensitive liposomes” (Universität Basel, priority 2018, dated 2024).

Where two headings read alike, the source gives them in different places.

The nature of data set [1]: Dynamic light scattering of liposome formulations before and after SANS heating cycles. The data set is classed as physicochemical. The conditions noted are these: for PDI, After heating / Size (hydrodynamic), After heating: after the SANS experiments (n = 3); for Size (hydrodynamic), After heating: heating to 42° C. and back, eight months after; for PDI, Before heating / Size (hydrodynamic), Before heating: before the SANS experiments (n = 5); for Size (hydrodynamic), Before heating: room temperature, D2O; for DLS larger population size: bimodal size distribution. The method, then:
A library of artificial phospholipids was synthesised. Table 5 summarises the characterisation of the liposomal formulations concerning hydrodynamic size and polydispersity, before and after the temperature-dependent SANS measurements. The size of the DPPC and Pad-PC-Pad liposomes was (120±2) nm with a polydispersity index between 0.01 and 0.20. […] Pad-Pad-PC and Sur-PC-Sur liposomes were 400 to 1,500 nm in size with a polydispersity index of 0.57.
DLS measurements were carried out on a DelsaMax PRO (Beckman Coulter, USA) at room temperature and at a lipid concentration of 0.3 mg/mL in D2O. The data were averaged among five independent measurements before heating cycles and three measurements eight months after applying heating cycles. Data were treated with the cumulant analysis method.

Data set [2] can be described thus: Small-angle neutron scattering (SANS) of liposomes as a function of temperature. The data set is classed as physicochemical. The source says: In order to determine the structural parameters, including the bilayer thickness of the selected liposomal formulations, a suitable model for data fitting has to be identified. […] The structure factor was fitted using the sticky hard sphere model (Baxter et al., The Journal of Chemical Physics 1968, 49 (6), 2770-2774; Mays, Langmuir 1989, 5, 422-428). In order to adjust the form factor to the overall shape of the liposomes, an ellipsoidal shell model with a homogeneous cross-section (Guinier, Annales de Physique, 1939; pp 161-237) was applied. The elliptical shell model is defined by three orthogonal axes with lengths a=R, b=R and c=εR, along with eccentricity ε>0, (ε<1: oblate, ε=1: spherical, ε>1: prolate). The model also accounts for variations in bilayer thickness and liposome size. As the scattering data of the Pad-PC-Pad liposomes at the temperature of 35° C. could not be approximated satisfactorily by means of the ellipsoidal shell, the inventors included disks with a homogeneous cross-section—an approach motivated by the cryo-TEM results. Together with the experimental data of the Pad-PC-Pad liposomes at three selected temperatures, the obtained fits are represented in FIG. 23.
The inventors recognised that the inhomogeneity of the liposomal formulations, except for Pad-PC-Pad, concerning the shape and size of the artificial lipids in this study only allows for the reasonable fitting of the q-range, which corresponds to bilayer thickness. For this purpose, the inventors applied an extended Guinier law (Hjelm et al., The Journal of Physical Chemistry B 2000, 104 (2), 197-211; Fratzl, Journal of Statistical Physics 1994, 77 (1-2), 125-143), which yields the thickness of the bilayer. To account for possible multi-lamellarity, the inventors included a para-crystalline stacking model (Schwartz et al., Biophysical journal 1975, 15 (12), 1201-1233; FruÈhwirth et al., Journal of Applied Crystallography 2004, 37 (5), 703-710) as a structure factor.
SANS measurements were performed at the SANS-I beamline at the Swiss Spallation Neutron Source SINQ facility (Paul Scherrer Institute, Villigen, Switzerland). The samples were loaded into 2 mm-path length, boron-free quartz glass cells and mounted in a temperature-controlled holder. This system allows for controlling the temperature of the specimen with an accuracy better than 1 K. The liposomal suspensions were measured between 22 and 42° C. in 3 to 4 K steps. Subsequently, the suspensions were cooled down to room temperature (22° C.) and measured again. Three detector distances, i.e. 1.6, 6.0 and 18.0 m, were used to collect data over the range of scattering vectors 0.01 nm^−1<q<10 nm^−1 at the neutron wavelengths (A) […]. Data were collected with a two-dimensional ^3He-detector with an array of 128×128 pixels and reduced to one-dimensional I(q) scattering curves, thus radially averaging the two-dimensional images. The data were corrected for transmission, background scattering and detector efficiency according to a standard procedure using the BerSANS software package (Keiderling, Applied Physics A 2002, 74 (1), s1455-s1457; Strunz et al., Journal of Applied Crystallography 2000, 33 (3 Part 1), 829-833).
The SANS data were analysed using SASfit software (Breßler et al., Journal of Applied Crystallography 2015, 48 (5), 1587-1598) and corresponding models. A Pad-PC-Pad sample was fitted over the entire measured q-range, whereas we restricted the fit for the other samples to the q-range, which corresponds to lipid bilayer thickness. For Pad-PC-Pad, the inventors used an ellipsoidal shell model with a homogeneous cross-section (Guinier, Annales de Physique, 1939; pp 161-237) and size distributions in terms of both thickness and radius. […]

The conditions of data set [3]: reported previously, cited from earlier work.
Data set [4] in a line: Release experiments with 5(6)-carboxyfluorescein-loaded large unilamellar vesicles (LUVET100), spontaneous and vortex-triggered. The data set is classed as physicochemical. From the text:
FIG. 8 Release experiments using 5(6)-carboxyfluorescein-loaded large unilamellar vesicles comprising 1,3-diheptadecanamidopropan-2-yl (2-(trimethylammonio) ethyl) phosphate (4) obtained via extrusion through a 100 nm track-edged filter membrane (LUVET100). Triggered release was induced by shaking the samples for a specific amount of time on a vortex-shaker.
Previously the inventors reported the 5(6)-carboxyfluorescein release from vesicles containing 1,3-palmitoylamido-1,3-deoxy-sn-glycero-2-phosphatidylcholine (2) (Holme et al., Nat. Nanotechnol. 2012, 7, 536-543). […] Increasing the Tm promises improved release properties. […] This leads to a lower leakage of the vesicles at 22° C. (room temperature) as well as 37° C. (average human body temperature) (FIG. 8). A prolongation if the acyl chain to the artificial C18 phospholipid 1,3-stearoylamido-1,3-deoxy-sn-glycero-2-phosphatidylcholine leads to an increased Tm of 52° C., but this phospholipid forms almost no liposomes anymore.
Each sample was treated with Triton X-100 to induce a full release of 5(6)-carboxy fluorescein.
Large unilamellar vesicles with a diameter of 100 nm (LUVET100) of the 1,3-diheptadecanamidopropan-2-yl (2-(trimethylammonio) ethyl) phosphate (4) were prepared following the extrusion protocol: in a 25 ml round bottom flask, 10 mg of the lipid was dissolved in CH2Cl2. After evaporation of the organic solvent, the film was further dried under high vacuum (40 mbar) overnight. Then the film was hydrated with the internal buffer for 30 min (1 ml, 50 mM 5(6)-carboxyfluorescein, 10 mM HEPES buffer (AppliChem), 10 mM NaCl dissolved in pure water, pH 7.4). Now at least 5 freeze-thaw cycles (liquid N2 to 65° C.) were carried out before the suspension was extruded 11 times using a Mini Extruder (Avanti Polar Lipids, USA) using track-edged filters with a mesh size of 100 nm (Whatman, USA). The external buffer was then exchanged on a size exclusion column (1.5×20 cm Sephadex G-50 column) in external buffer (107 mM NaCl dissolved in ultrapure water, 10 mM HEPES, pH 7.4).

Data set [5] in a line: Differential scanning calorimetry, main phase transition of vesicle membranes. The data set is classed as physicochemical. The conditions noted are these: main phase transition temperature of liposome membrane. The source says:
Interdigitation of membrane leaflets also influences the membranes main-phase transition temperature. […] Also, the value for the bilayer main-phase transition temperature is 11.5 K higher than the calculated critical temperature from the monolayer experiments, where no interdigitation is possible.
For orientation: DSC measures the heat that a sample takes up or gives off during a temperature scan.

[6] abbreviates: 22 ° C. (after cooling down to room temperature).

Turning to `CCCCCCCCCCCCCCCC(=O)OCC(COC(=O)CCCCCCCCCCCCCCC)OP(=O)([O-])OCC[N+](C)(C)C` [Pes-PC-Pes], in data set [1], the “DLS most probable / dominant or smaller population size” value is recorded as “about 100 nm”. Also, the “PDI, After heating” value in data set [1] stood at 0.92 ± 0.08. Also, the “Size (hydrodynamic), After heating” value in data set [1] is listed as 3100 ± 200 nm. Besides, the “PDI, Before heating” value in data set [1] turned out to be 0.57 ± 0.01. The “Size (hydrodynamic), Before heating” value in data set [1] (listed as Pes-PC-Pes (3)) is reported as 170 ± 20 nm. The “DLS larger population size” value in data set [1] is listed as approximately 1 μm. Moreover, the most probable bilayer thickness in data set [2] (22 ° C.) was determined as 3.9 nm; in data set [2] (setting [6]) it was 4.82 nm; in data set [2] (25 ° C.) it was 4.17 nm; in data set [2] (28 ° C.) it was 4.46 nm; in data set [2] (32 ° C.) it was 4.42 nm; in data set [2] (35 ° C.), 4.6 nm. In addition, the most probable bilayer thickness in data set [2] (39 ° C.) came to 4.68 nm; in data set [2] (42 ° C.) it was 4.58 nm. Further, the “increase in bilayer thickness at phase transition” value in data set [2] (present study) amounted to 18%. Moreover, the “increase in bilayer thickness after the heating cycle” value in data set [2] (temperature cycle to 42° C. including cooling to room temperature) amounted to 24%. For the same compound, in data set [3], the “Tm, main phase transition temperature” value was 39 °C.

For the compound `CCCCCCCCCCCCCCCCCC(=O)NCC(CNC(=O)CCCCCCCCCCCCCCCCC)OP(=O)([O-])OCC[N+](C)(C)C` [Sad-PC-Sad, 1,3-distearamidopropan-2-phosphocholine], the “Release at 37° C. after 2 h” value in data set [4] (37° C., 2 h) amounted to 9.1%. Further, the “Release at RT after 60 s vortex” value in data set [4] (mechanically induced release, 22° C. (RT), 60 s vortexing) was 8.32%. Besides, the “Release 37° C. after 60 s vortex” value in data set [4] (mechanically induced release, 37° C., 60 s vortexing) was 40.2%. The “Release at RT after 6 days” value in data set [4] (spontaneous release, RT, (6 days)) was 8.4%. Also, in data set [5], the Tm was 52 °C. Further, in data set [1], the “DLS most probable / dominant or smaller population size” value is given as 160 nm. The “PDI, After heating” value in data set [1] was determined as 0.20 ± 0.02. Moreover, the “Size (hydrodynamic), After heating” value in data set [1] stood at 220 ± 10 nm. Moreover, in data set [1], the “PDI, Before heating” value came to 0.23 ± 0.01. Moreover, the “Size (hydrodynamic), Before heating” value in data set [1] (listed as Sad-PC-Sad (6)) was determined as 160 ± 3 nm. The bilayer thickness variations in data set [2] (22 to 42° C.) was not above 10%. The most probable bilayer thickness in data set [2] (22 ° C.) was found to be 3.15 nm; in data set [2] (setting [6]), 3.01 nm; in data set [2] (25 ° C.) it was 3.51 nm; in data set [2] (28 ° C.) it was 3.51 nm; in data set [2] (32 ° C.), 3.49 nm; in data set [2] (35 ° C.), 3.46 nm. Moreover, the most probable bilayer thickness is 3.38 nm in data set [2] (39 ° C.) and 3.33 nm in data set [2] (42 ° C.). In addition, in data set [3], the “Tm, main phase transition temperature” value was 52 °C.

As for `CCCCCCCCCCCCCCCC(=O)NC[C@H](COP(=O)([O-])OCC[N+](C)(C)C)NC(=O)CCCCCCCCCCCCCCC` [Pad-Pad-PC], the “DLS most probable / dominant or smaller population size” value in data set [1] is “about 150 nm”. The “PDI, Before heating” value in data set [1] amounted to 0.57; in data set [1] (listed as Pad-Pad-PC (2)), 0.57 ± 0.01. The “Size (hydrodynamic), Before heating” value in data set [1] (listed as Pad-Pad-PC (2)) is listed as 1500 ± 30 nm. Also, in data set [1], the “DLS larger population size” value is given as approximately 3 μm. For the same compound, the most probable bilayer thickness came to 5.57 nm in data set [2] (22 ° C.); 5.67 nm in data set [2] (setting [6]); 5.55 nm in data set [2] (25 ° C.); 5.55 nm in data set [2] (28 ° C.); 5.52 nm in data set [2] (32 ° C.); 5.54 nm in data set [2] (35 ° C.). Besides, the most probable bilayer thickness in data set [2] (39 ° C.) turned out to be 5.58 nm; in data set [2] (42 ° C.), 5.57 nm. Besides, the “Tm, main phase transition temperature” value is 46 °C in data set [3] and 40-47 °C in data set [3] (listed as Pad-Pad-PC (2)).
